The text below walks through data of patent US11136432B2, “Method for producing polyisothianaphthene-based electroconductive polymer” (SHOWA DENKO K.K., priority 2016, dated 2021).

The structures appear in SMILES notation.

Data set [1] in a line: Solubility test: amount dissolved in 10 g of solvent, visually inspected. The data set is classed as physicochemical. As for the experimental part: Benzo[c]thiophene-1,3-dihydro-2-oxide was dissolved a little at a time in 10 g of a solvent, and the amount of dissolution was visually inspected.
1,3-dihydroisothianaphthene was dissolved a little at a time in 10 g of a solvent.

Data set [2] in a line: Stability test after dissolution: visual observation of the solution. To be noted: in the air. The data set is classed as physicochemical. As for the experimental part:
1.0 g of benzo[c]thiophene-1,3-dihydro-2-oxide and 0.25 g of p-toluenesulfonic acid-hydrate (pTSA, molar ratio: 5/1) were dissolved in 11.0 g of each solvent (solid content: 10 mass %) in composition as shown in Table 3 in the air. The solution was visually observed immediately (early period), 24 hours, and one week after the dissolution.
1.0 g of 1,3-dihydroisothianaphthene and 0.28 g of p-toluenesulfonic acid-hydrate (pTSA, molar ratio: 5/1) were dissolved in 11.3 g of each solvent (solid content: 10 mass %) in composition as shown in Table 4 in the air. The solution was visually observed immediately (early period), 24 hours, and one week after the dissolution.
A part of the prepared aqueous solution was delivered by drops onto a glass plate, followed by heating and drying at 120° C. for 1 hour. The generated solid was black. The generation of polyisothianaphthene was confirmed from the measurement of the UV spectrum obtained by adding the product to water.
A part of the prepared solution was delivered by drops onto a glass plate, followed by heating and drying at 120° C. for 1 hour. The generated solid was black. The generation of polyisothianaphthene was confirmed from the measurement of the UV spectrum obtained by adding the product to water.

Setting [3] is: 4° C., DMSO, pTSA (molar ratio 5/1), solid content 10 mass %.
[4] abbreviates: 25° C., DMSO, pTSA (molar ratio 5/1), solid content 10 mass %.
The mark [5] stands for this setting: 25° C., EtOH, pTSA (molar ratio 5/1), solid content 10 mass %.
[6] abbreviates: 25° C., solvent None, catalyst None.

As for `c1ccc2c(c1)CSC2` [Comparative Example 1, 1,3-dihydroisothianaphthene], the Dissolution amount result in data set [1] (solvent: Dimethyl formamide) is recorded as “Soluble”; in data set [1] (solvent: Dimethyl sulfoxide) it was “Soluble”; in data set [1] (solvent: Ethanol), “Soluble”; in data set [1] (solvent: Ethylene glycol), “Insoluble”; in data set [1] (solvent: Isopropanol) it was “Soluble”; in data set [1] (solvent: Methanol) it was “Slightly soluble”. Besides, the Dissolution amount entry in data set [1] (solvent: Water) is “Insoluble”. In addition, the “Visual observation After 1 week” value in data set [2] (setting [3]) was “Pale yellow”; in data set [2] (setting [4]), “Deep blue”; in data set [2] (setting [5]) it was “Deep blue”; in data set [2] (setting [6]) it was “Pale brown”. Moreover, the “Visual observation After 24 hours” value was “Pale yellow” in data set [2] (setting [3]), “Pale brown” in data set [2] (setting [4]), “Brownish red” in data set [2] (setting [5]) and “Pale yellow” in data set [2] (setting [6]).

As for `[O-][S+]1Cc2ccccc2C1` [Example 1, benzo[c]thiophene-1,3-dihydro-2-oxide], the Dissolution amount result in data set [1] (solvent: Dimethyl formamide), in data set [1] (solvent: Dimethyl sulfoxide), in data set [1] (solvent: Ethanol), in data set [1] (solvent: Ethylene glycol), in data set [1] (solvent: Isopropanol) and in data set [1] (solvent: Methanol) was “Soluble” each time. Further, the Dissolution amount result in data set [1] (solvent: Water) was “Soluble”.
